Measurements as given in patent US7759349B2, “Control of parasites in animals by the use of imidazo[1,2-b]pyridazine derivatives” (Schering-Plough Animal Health Corporation, priority 2003, dated 2010).

What follows are compounds tested on Haemonchus contortus (assay: Haemonchus contortus larvacidal assay: NemaTOX H. contortus dose response (larval development, eggs to L3)). Details: Haemonchus contortus, 144 h; Table 1; concentration required to inhibit development in 99% of the nematode larvae; eggs on agar to L3 stage (6 days); two-fold dilutions, 0.024 to 50 μg/ml; read-out: LD99.
Format: cell-based
Experimental: Haemonchus Contortus Larvacidal Assay: NemaTOX H.contortus Dose Response (00/0510)
Effect on larval development is determined in the assay described by Gill et al. (International Journal of Parasitology, 1995, 25, 463-470). Briefly, in this assay nematode eggs were applied to the surface of an agar matrix containing the test compound and then allowed to develop through to the L3, infective stage (6 days)
The wells for each dilution of every compound (from highest to lowest concentration) were inspected to determine the well number corresponding to the lowest concentration at which development was inhibited in 99% of the nematode larvae present. As the well numbers correspond to a two-fold serial dilution of each compound, a titre (dilution factor) is generated as 2^n-1, where n is the well number. By dividing the highest concentration tested by the titre an LD99 value can be obtained, representing the concentration required to inhibit development in 99% of the nematode larvae present.
The compounds supplied as solid and viscous liquids were dissolved in DMSO. Twelve serial 1/2 dilutions in DMSO solution were prepared from the stock solution, each of which was then diluted 1/5 with water. Aliquots (10 μl) of each dilution were transferred to the bioassay plates to give a final concentration range of 0.024 to 50 μg/ml.
In Tables 1, 2 and 3 the Haemonchus contortus LD99 values for compounds in accordance with the present invention are listed, measured in micrograms/mL.

Compared with `c1cc2c(cc1-c1cn3nc(OCC4CC4)ccc3n1)OCO2` [Compound 43, 2-(3,4-Methylendioxyphenyl)-6-cyclopropylmethoxyimidazo[1,2-b]pyridazine], `Cc1c(-c2cccs2)nc2ccc(OCC3CC3)nn12` [Compound 44] is 3.2-fold higher in IC99: 0.117 µg/mL for the first, 0.375 µg/mL for the second.

Same assay, conditions: Table 1; concentration required to inhibit development in 99% of the nematode larvae; eggs on agar to L3 stage (6 days); two-fold dilutions, 0.024 to 50 μg/ml

Going from `COc1ccc2nc(-c3ccc(C)cc3)cn2n1` [Compound 1] to `CCOc1ccc2nc(-c3ccc(C)cc3)cn2n1` [Compound 2], the LD99 falls from 3.75 micrograms/mL to 0.875 micrograms/mL.

Going from `COc1c(-c2ccccc2)nc2ccc(SC)nn12` [Compound 3] to `CCSc1ccc2nc(-c3ccccc3)c(OC)n2n1` [Compound 24], the LD99 rises from 3 micrograms/mL to 7.5 micrograms/mL.

Compared with `CSc1ccc2nc(-c3ccccc3)cn2n1` [Compound 4], `c1ccc(Sc2ccc3nc(-c4ccccc4)cn3n2)cc1` [Compound 5] is lower in LD99: 2.75 micrograms/mL for the first, 1.625 micrograms/mL for the second.

Going from `CSc1ccc2nc(-c3ccc4c(c3)OCO4)cn2n1` [Compound 6] to `CCCSc1ccc2nc(-c3ccc4c(c3)OCO4)cn2n1` [Compound 8], the LD99 falls from 3.25 micrograms/mL to 0.813 micrograms/mL.

Compared with `CCCSc1ccc2nc(-c3ccc(C)cc3)cn2n1` [Compound 7], `CCSc1ccc2nc(-c3ccc(C)cc3)cn2n1` [Compound 12] is higher in LD99: 0.938 micrograms/mL for the first, 1.25 micrograms/mL for the second.

Going from `c1ccc(COc2ccc3nc(-c4ccccc4)cn3n2)cc1` [Compound 10] to `CCOc1ccc(-c2cn3nc(-c4ccccc4)ccc3n2)cc1` [Compound 35], the LD99 rises from 5.5 micrograms/mL to 10 micrograms/mL.

Going from `CCCOc1ccc2nc(-c3ccc(Cl)cc3)cn2n1` [Compound 11] to `CCCOc1ccc2nc(-c3ccc(F)cc3)cn2n1` [Compound 55], the LD99 falls from 3.75 micrograms/mL to 0.813 micrograms/mL.

Compared with `CCCSc1ccc2nc(-c3cccc(OC)c3)cn2n1` [Compound 13], `CCCOc1ccc2nc(-c3cccc(OC)c3)cn2n1` [Compound 28] is lower in LD99: 0.63 micrograms/mL for the first, 0.23 micrograms/mL for the second.

First: COc1cccc(-c2nc3ccc(SC)nn3c2OC)c1 [Compound 15]
Second: CCCOc1ccc2nc(-c3ccc(OC)cc3)c(C)n2n1 [Compound 37]
The LD99 of the first is higher: 2.75 micrograms/mL for the first, 0.344 micrograms/mL for the second.

Compared with `CCCOc1ccc2nc(-c3ccc4c(c3)OCO4)cn2n1` [Compound 16], `COCCOc1ccc2nc(-c3ccc4c(c3)OCO4)cn2n1` [Compound 25] is higher in LD99: 0.23 micrograms/mL for the first, 1.25 micrograms/mL for the second.

First: COc1ccc(-c2cn3nc(OC)ccc3n2)cc1 [Compound 18]
Second: COc1ccc(-c2cn3nc(SC(C)C)ccc3n2)cc1 [Compound 52]
The LD99 of the first is higher: 3 micrograms/mL for the first, 0.938 micrograms/mL for the second.

First: CCCOc1ccc2nc(-c3ccc(OC)c(OC)c3)cn2n1 [Compound 26]
Second: COc1ccc(-c2cn3nc(OC(C)C)ccc3n2)cc1OC [Compound 58]
The LD99 of the first is lower: 1.3 micrograms/mL for the first, 15 micrograms/mL for the second.

Going from `CCCOc1ccc2nc(-c3ccc(OCC)cc3)cn2n1` [Compound 27] to `CCOc1ccc(-c2cn3nc(OCC)ccc3n2)cc1` [Compound 60], the LD99 rises from 0.1 micrograms/mL to 0.172 micrograms/mL.

Going from `CCCSc1ccc2nc(-c3ccc(OC)c(OC)c3)cn2n1` [Compound 29] to `COc1ccc(-c2cn3nc(SCC(C)C)ccc3n2)cc1OC` [Compound 57], the LD99 falls from 1.9 micrograms/mL to 1.375 micrograms/mL.

Compared with `CCCSc1ccc2nc(-c3ccc(OCC)cc3)cn2n1` [Compound 30], `CCOc1ccc(-c2cn3nc(SCC(C)C)ccc3n2)cc1` [Compound 49] is higher in LD99: 0.38 micrograms/mL for the first, 1.75 micrograms/mL for the second.

Going from `CCOc1ccc(-c2cn3nc(OC4CCCC4)ccc3n2)cc1` [Compound 31] to `CCOc1ccc(-c2cn3nc(OC(C)C)ccc3n2)cc1` [Compound 51], the LD99 rises from 0.875 micrograms/mL to 1.875 micrograms/mL.

First: CCCOc1nn2cc(-c3ccc(OCC)cc3)nc2cc1C [Compound 32]
Second: CCCOc1nn2cc(-c3ccc(OCC)cc3)nc2c2ccccc12 [Compound 62]
The LD99 of the first is lower: 0.188 micrograms/mL for the first, 0.625 micrograms/mL for the second.

Going from `CCCOc1ccc2nc(-c3ccc(Cl)s3)cn2n1` [Compound 34] to `CCCOc1ccc2nc(-c3ccc(F)cc3F)cn2n1` [Compound 54], the LD99 rises from 0.188 micrograms/mL to 0.219 micrograms/mL.

Compared with `COc1ccc(-c2nc3ccc(-c4ccccc4)nn3c2C)cc1` [Compound 36], `COc1ccc(CSc2ccc3nc(-c4cccs4)c(C)n3n2)cc1` [Compound 47] is higher in LD99: 0.8123 micrograms/mL for the first, 7.5 micrograms/mL for the second.

Compared with `CCCOc1ccc2nc(-c3ccc(OC)c(Br)c3)c(C)n2n1` [Compound 38], `CCCOc1ccc2nc(-c3ccc(OCC)cc3)c(Br)n2n1` [Compound 40] is lower in LD99: 3.75 micrograms/mL for the first, 0.344 micrograms/mL for the second.

Compared with `CCOc1ccc(-c2nc3ccc(OCC4CC4)nn3c2Br)cc1` [Compound 39], `CCc1ccc(-c2cn3nc(OCC4CC4)ccc3n2)cc1` [Compound 56] is lower in LD99: 2.75 micrograms/mL for the first, 0.0781 micrograms/mL for the second.

First: CCOc1ccc(-c2cn3nc(SCc4ccc(OC)cc4)ccc3n2)cc1 [Compound 41]
Second: CCOc1ccc(-c2cn3nc(SCc4ccc(Cl)cc4)ccc3n2)cc1 [Compound 42]
The LD99 of the first is higher: 11 micrograms/mL for the first, 3 micrograms/mL for the second.

Compared with `Cc1c(-c2cccs2)nc2ccc(Br)nn12` [Compound 45], `CCCCCCSc1ccc2nc(-c3cccs3)c(C)n2n1` [Compound 46] is higher in LD99: 6 micrograms/mL for the first, 6.5 micrograms/mL for the second.

Going from `CCCSc1ccc2nc(-c3ccc(OCC)cc3)c(Cl)n2n1` [Compound 48] to `CCOc1ccc(-c2cn3nc(SC(C)C)ccc3n2)cc1` [Compound 50], the LD99 falls from 6 micrograms/mL to 0.875 micrograms/mL.

Compared with `CCCCOc1ccc2nc(-c3ccc(OCCC)cc3)cn2n1` [Compound 53], `CCCCOc1ccc2nc(-c3ccc(OCCC)cc3)c(CN(C)C)n2n1` [Compound 59] is higher in LD99: 0.344 micrograms/mL for the first, 14 micrograms/mL for the second.

In the case of `CCCOc1ccc2nc(-c3ccc4c(c3)OCCO4)cn2n1` [Compound 61], the LD99 is reported as 0.813 micrograms/mL.

For `COc1c(-c2ccc3cc(C)ccc3c2)nc2ccc(SC)nn12` [Compound 9], the LD99 was over 15.0 micrograms/mL.
`CCCSc1ccc2nc(-c3cc(OC)c(OC)c(OC)c3)cn2n1` [Compound 14] showed an LD99 of over 15.0 micrograms/mL.
Work on `COc1ccc(-c2nc3ccc(OCc4ccccc4)nn3c2OC)cc1` [Compound 17] yielded an LD99 of over 15.0 micrograms/mL.
`COc1cccc(Sc2ccc3nc(-c4ccc5c(c4)OCO5)cn3n2)c1` [Compound 19] showed an LD99 of over 15.0 micrograms/mL.
With `CSCc1c(-c2ccc(Cl)cc2)nc2ccc(SC)nn12` [Compound 20] the LD99 was over 15.0 micrograms/mL.
`COc1c(-c2ccccc2)nc2ccc(Sc3ccccc3)nn12` [Compound 21] was tested, and the LD99 was over 15.0 micrograms/mL.
`CCCSc1ccc2nc(-c3ccccc3)c(OC)n2n1` [Compound 22] was tested, and the LD99 was over 15.0 micrograms/mL.
With `COc1c(-c2ccccc2)nc2ccc(OCc3ccccc3)nn12` [Compound 23] the LD99 was over 15.0 micrograms/mL.

Same assay, conditions: Table 2; concentration required to inhibit development in 99% of the nematode larvae; eggs on agar to L3 stage (6 days); two-fold dilutions, 0.024 to 50 μg/ml

First: COCCOc1ccc(-c2cn3nc(OCCOC)ccc3n2)cc1 [Compound 64]
Second: COCCOc1ccc(-c2cn3nc(Br)ccc3n2)cc1 [Compound 90]
The LD99 of the first is higher: 6 micrograms/mL for the first, 3 micrograms/mL for the second.

First: CCCOc1ccc2nc(-c3ccc(OCCOC)c(OC)c3)cn2n1 [Compound 66]
Second: CCCSc1ccc2nc(-c3ccc(OCCOC)c(OC)c3)cn2n1 [Compound 68]
The LD99 of the first is higher: 0.81 micrograms/mL for the first, 0.44 micrograms/mL for the second.

First: COCCOc1ccc(-c2cn3nc(N4CCCCC4)ccc3n2)cc1 [Compound 67]
Second: COCCOc1ccc(-c2cn3nc(N4CCCC4)ccc3n2)cc1 [Compound 70]
The LD99 of the first is lower: 1.5 micrograms/mL for the first, 3.25 micrograms/mL for the second.

Going from `COCCOc1ccc(-c2cn3ncccc3n2)cc1` [Compound 69] to `CCCNc1ccc2nc(-c3ccc(OCCOC)cc3)cn2n1` [Compound 71], the LD99 falls from 15 micrograms/mL to 0.688 micrograms/mL.

First: COCCOc1ccc(-c2cn3nc(OC4CCCC4)ccc3n2)cc1 [Compound 73]
Second: OCCOc1ccc(-c2cn3nc(OC4CCCC4)ccc3n2)cc1 [Compound 74]
The LD99 of the first is lower: 1.875 micrograms/mL for the first, 7 micrograms/mL for the second.

Compared with `CCCOc1ccc2nc(-c3ccc(OCCOC)cc3)c(Br)n2n1` [Compound 81], `CCCOc1ccc2nc(-c3ccc(OCCOC)cc3)c(C)n2n1` [Compound 84] is higher in LD99: 0.0137 micrograms/mL for the first, 0.109 micrograms/mL for the second.

Compared with `CCCOc1ccc2nc(-c3ccc(OCCOC)c(Br)c3)c(C)n2n1` [Compound 83], `COCCOc1ccc(-c2nc3ccc(Cl)nn3c2C)cc1Br` [Compound 86] is higher in LD99: 0.375 micrograms/mL for the first, 3 micrograms/mL for the second.

First: COCCOc1ccc(-c2nc3ccc(-c4ccccc4)nn3c2C)cc1 [Compound 85]
Second: COCCOc1ccc(-c2nc3ccc(Cl)nn3c2C)cc1 [Compound 87]
The LD99 of the first is higher: 1.88 micrograms/mL for the first, 0.156 micrograms/mL for the second.

In the case of `CCCSc1ccc2nc(-c3ccc(OCCOC)c(OC)c3)c(Br)n2n1` [Compound 89], the LD99 is reported as 0.75 micrograms/mL.
